Entries after “also recorded” stand apart in the source; their conditions may differ.
Key:
R-type Ca^2+ channel [1] = test: Cell-attached single channel recording of R-type Ca2+ channel, human aortic VSM cell line; assay type: cell-based; details: for R-type channel opening (probability, duration, frequency) / R-type single channel current: 10^−7M extra-patch pipette application; for R-type single channel amplitude and probability of opening: nifedipine 10^−6M present
Description: Also, for the R-type Ca^2+ channel current, the effect of the compounds are tested on the R-type Ca^2+ channel amplitude, voltage dependency and probability of opening, by using the cell-attached patch clamp technique (Bkaily 1994, supra; 1996, supra) and intra and extra patch pipette application of the drug.
In another series of experiments (n=7), using the cell attached patch clamp technique (Bkaily G. 1994, supra; Bkaily G. et al., 1996, supra), the effect of 10^−7M of MV8608 on the R-type Ca^2+ channel in human aortic vascular smooth muscle cell line was tested. […] In a second series of experiments (n=3), the patch pipette solution was free of MV8608 and after recording the single channel activities at different voltages, MV8608 (final concentration of 10^−7M) was applied to the extra-patch pipette solution containing 140 mM KCl (where the rest of the cell is bathing). This experiment was designed to verify whether MV8608 crossed the cell membrane and if so, whether its effect from the internal side of the channel under the patch is the same as that when applied at the outer side thereof. […] Such a pattern of increase of probability of opening and the open duration accompanied with the sporadic decrease of the single channel current amplitude has never been observed when MV8608 was applied at the outer side of the single channel under the patch pipette.
In another series of experiments (n=7), the effect of 10^−7M of MV8612 was tested on the R-type Ca^2+ in human aortic VSM cells, using the single channel cell attached recording technique and intra and extra patch pipette application of drugs.
In one series of experiments (n=3), MV8612 (total concentration, 10^−7M) was only applied to the patch pipette. […] As for MV8608, in one series of experiments (n=4), MV8612 (10^−7M) was only applied to the extra-patch pipette, in order to verify if the compound penetrates into the cytosol and if so, how it affects the R-type Ca^2+ channel activity.

R-type Ca^2+ channel [2] = test: Fura-2 total [Ca]i, R-type channel stimulation-induced sustained increase, pooled cell types; assay type: cell-based, chick, human, rabbit
From the text: (§1) This sustained increase of Ca^2+ induced by depolarization of the cell membrane or hormones such as PAF, ET-1 and bradykinin is due to the increase of Ca^2+ influx through the R-type Ca^2+ channels at the sarcolemmal membrane and/or the nuclear membrane (Bkaily G., 1994, supra; 1996, supra; 1997a–d, supra). Using Ca^2+ fluorescence probes Fura-2 or Fluo-3 and 2 and three-dimension Ca^2+ imaging techniques (Bkaily G., 1994, supra; 1996, supra; 1997a–d, supra), the effect of hormones and drugs could be easily tested. These two methods are used with single cells of different types as described above.
(§2) In another series of experiments we tested the effect of MV8608 (10^−9M) on R-type Ca^2+ channels stimulation-induced sustained increase of total intracellular Ca^2+ by sustained depolarization (FIGS. 15 to 19), by PAF (10^−9M) (FIGS. 16 to 19 and 21 to 22), by ET-1 (10^−9M) (FIGS. 16 and 19) and bradykinin (BK, 10^−6M) (FIGS. 20 and 21), in embryonic chick heart cells (FIGS. 15, 16, 19 and 20), 19-week-old human fetal heart cells (FIGS. 15, 17, 18 and 20), rabbit aortic vascular smooth muscle (VSM) cells (FIGS. 20 and 21), human aortic VSM cell-line (FIG. 23) and freshly isolated (FIG. 22) as well as in freshly isolated aortic endothelial cells (FIG. 22).
Using Fura-2 [Ca]i measurement technique, in one series of experiments we tested the effect of MV8612 (10^−9M) on the stimulation of R-type Ca^2+-induced sustained increase of [Ca]i by sustained depolarization (FIGS. 26 and 27), PAF (10^−9M, FIG. 34) and ET-1 (FIGS. 33 and 34).

R-type Ca^2+ channel [3] = test: Fura-2 [Ca]i, embryonic chick heart cells; assay type: cell-based; details: 10^−9M, sustained depolarization (KCl 30 mM), PAF 10^−9M, ET-1 10^−9M
From the text: as §1
as §2, with “22). […]” for “22).”

R-type Ca^2+ channel [4] = test: Fura-2 [Ca]i, rabbit aortic vascular smooth muscle cells; assay type: cell-based; details: 10^−9M
From the text: as §1
as §2, with “22). […]” for “22).”

rat paw oedema = test: Rat paw oedema; assay type: in vivo; details: for des-Arg^9-bradykinin-induced paw oedema: 10 and 100 nmol/paw co-injected, rats treated with LPS
Description: In this experiment (N=5 to 6 animals per group), the anti-oedemagenic action of compounds MV 8608 and MV 8612 against bradykinin and several mediators which are reported to be involved in the inflammatory processes, was evaluated. The procedures used to perform these experiments have been reported elsewhere (Neves et al., 1993, Eur. J. Pharmacol. 243:213–219; Campos et al., 1995, Br. J. Pharmacol. 114:1005–1013; Campos et al., 1996, Br. J. Pharmacol. 117:793–798; Eur. J. Pharmacol. 316:227–286). […] As reported previously, in rats treated […] prior to a systemic injection of LPS, both B1 and B2 kinin selective agonists caused marked oedema formation (FIGS. 37C and D (Campos et al., 1996, supra)).

[5] = tested on: vascular permeability in the rat skin; test: Bradykinin-induced skin vascular permeability in rats; assay type: in vivo; details: for increase of vascular permeability caused by bradykinin: MV 8612 8 and 16, MV 8608 27 and 54, i.p.
Description: To assess further the anti-inflammatory action of MV 8612 and MV 8608, their effects against the inflammatory responses caused by several mediators of inflammation in a murine model of pleurisy were tested (Saleh et al., 1996, Br. J. Pharmacol. 118:811–819). In addition, both compounds were tested against the increase of vascular permeability caused by bradykinin in the rat skin (Neves et al., 1993b, Phytotherapy Research. 7:356–362).

[6] = tested on: writhing response in mice; test: Writhing response in mice (acetic acid, acetylcholine, kaolin); assay type: in vivo; details: for acetic acid, acetylcholine and kaolin-induced writhing response: MV 8612 0.25 to 2.5, MV 8608 2.7, i.p., 30 min prior
From the text: The antinociceptive actions of compound MV 8612 and MV 8608 were investigated in different models of nociception in mice as reported previously (Vaz et al., 1996, J. Pharmacol. Exp. Ther. 278:304–312).

[7] = 100 nmol/paw, rats treated 30 days prior

With `C[C@]12CC[C@H](O)CC1=CC[C@@H]1[C@@H]2CC[C@]2(C)[C@H]3[C@@H]4OC[C@H]3O[C@@H](O)[C@]12O4` [MV8608, (15R, 16R, 20S)-14, 16:15,20:16,21-triepoxi-15,16-seco 14β, 17α-pregn-5-ene-3β, 15-diol] the “R-type channel opening (probability, duration, frequency)” value (R-type Ca^2+ channel [1]) was “increased the probability and duration of opening”, the “R-type single channel current” value (R-type Ca^2+ channel [1]) was “spontaneous decrease and release of the blockade of the single channel current” and the “R-type single channel conductance” value (R-type Ca^2+ channel [1]; 10^−7M in the patch pipette) was “without affecting its single channel conductance”. The “R-type single channel amplitude and probability of opening” value (R-type Ca^2+ channel [1]; 10^−7M in the patch pipette) was “decreased the single channel amplitude and probability of opening”, the “time to complete block of sustained increase of [Ca]i” value (R-type Ca^2+ channel [2]; 10^−9M) was 4 to 5 min and the “sustained increase of [Ca]i via activation of R-type Ca2+ channel” value (R-type Ca^2+ channel [2]; 10^−9M, sustained depolarization, ET-1 10^−9M, PAF 10^−9M, BK 10^−6M) was “completely blocked; also recorded: blockade”. For the same compound, the “block of R-type Ca2+ channel across cell types” value (R-type Ca^2+ channel [2]; incl. MG63, FAOS-2, human VSM, endothelial cells, T-lymphocytes, platelets, AOSMC-9) was “blocked the R-type Ca^2+ channel in all cell types used”, the “sustained increase of [Ca]i” value (R-type Ca^2+ channel [3]) was “blockade” and the “sustained increase of [Ca]i” value (R-type Ca^2+ channel [4]; BK 10^−6M and PAF 10^−9M) was “blockade”. The PAF-induced paw oedema (rat paw oedema; 100 nmol/paw) was “consistently inhibited”, the PGE2-induced paw oedema (rat paw oedema; 100 nmol/paw) was “partially inhibited” and the “substance P-induced paw oedema” value (rat paw oedema; 100 nmol/paw) was “unaffected”. For the same compound, the bradykinin-induced paw oedema (rat paw oedema; [7]) was “significantly inhibited”, the “des-Arg^9-BK-induced paw oedema” value (rat paw oedema; [7]) was “significantly inhibited” and the carrageenan-induced paw oedema (rat paw oedema; 10 and 100 nmol/paw) was “significantly prevented”. The dextran-induced paw oedema (rat paw oedema; 10 and 100 nmol/paw) was “significantly prevented”, the histamine-induced paw oedema (rat paw oedema; 10 and 100 nmol/paw) was “significantly prevented” and the “potentiation of paw oedema by low dose des-Arg^9-BK plus PAF” value (rat paw oedema; 10 and 100 nmol/paw) was “prevented the potentiation”. For the same compound, the “potentiation of paw oedema by low dose des-Arg^9-BK plus PGE2” value (rat paw oedema; 10 and 100 nmol/paw) was “prevented the potentiation”, the serotonin-induced paw oedema (rat paw oedema; 10 and 100 nmol/paw) was “significantly prevented” and the “des-Arg^9-bradykinin-induced paw oedema” value (rat paw oedema) was “dose-related inhibition”. For the same compound, the ovalbumin-induced paw oedema (rat paw oedema; 10 and 100 nmol/paw, actively sensitised animals) was “inhibited significantly”, the bradykinin-induced hindpaw oedema (rat paw oedema; 10 and 100 nmol/paw, animals treated with LPS) was “no significant effect” and the “increase of vascular permeability caused by bradykinin” value [5] was “antagonised in a dose-related manner”. The “acetic acid, acetylcholine and kaolin-induced writhing response” value [6] was “only partial or even no antinociceptive action”.

For `COC1CC(OC2C(C)OC(O[C@H]3CC[C@@]4(C)C(=CC[C@@H]5[C@@H]4CC[C@]4(C)[C@H]6[C@@H]7OC[C@H]6O[C@@H](O)[C@]54O7)C3)CC2OC)OC(C)C1OC1CC(OC)C(OC2CC(OC)C(OC3OC(C)C(OC(C)=O)C(OC)C3OC(C)=O)C(C)O2)C(C)O1` (stereo partly shown) [MV8612], the “R-type channel opening (probability, duration, frequency)” value (R-type Ca^2+ channel [1]) was “rapidly increased the R-type Ca^2+ opening frequence”, the “R-type single channel current” value (R-type Ca^2+ channel [1]) was “small decrease in the single channel current” and the “R-type single channel amplitude and probability of opening” value (R-type Ca^2+ channel [1]; 10^−7M in the patch pipette) was “significantly decreased”. For the same compound, the “decrease of R-type single Ca2+ channel current amplitude” value (R-type Ca^2+ channel [1]; 10^−7M via the patch pipette, n=3) was “about 75 % of the control value”, the “extent of blocking of R-type channel amplitude and probability of opening, comparison” value (R-type Ca^2+ channel [1]; intra-patch pipette, MV8612 versus MV8608) was “superior to that of MV8608” and the “sustained increase of [Ca]i induced by sustained depolarization and hormones” value (R-type Ca^2+ channel [2]; 10^−9M, PAF 10^−9M, ET-1) was “significantly decreased”. The “sustained increase of [Ca]i” value (R-type Ca^2+ channel [3]) was “blockade”, the “sustained increase of [Ca]i” value (R-type Ca^2+ channel [4]; sustained depolarization and ET-1 10^−9M) was “blockade” and the “oedema by bradykinin plus PAF” value (rat paw oedema; 10 nmol/paw) was “did not interfere”. For the same compound, the “oedema by low dose bradykinin plus PGE2” value (rat paw oedema; 10 nmol/paw) was “significantly inhibited”, the “oedema by low dose bradykinin plus calcitonin gene related peptide” value (rat paw oedema; 10 nmol/paw) was “significantly inhibited” and the “oedema by low dose bradykinin plus prostacyclin” value (rat paw oedema; 10 nmol/paw) was “significantly inhibited”. The PAF-mediated paw oedema (rat paw oedema; 10 and 100 nmol/paw) was “only a minimal inhibition”, the PGE2-induced paw oedema (rat paw oedema; 10 and 100 nmol/paw) was “dose-dependently inhibited” and the bradykinin-induced paw oedema (rat paw oedema; 10 and 100 nmol/paw) was “significantly inhibited”. The carrageenan-induced paw oedema (rat paw oedema; 10 and 100 nmol/paw) was “dose-dependently inhibited”, the “substance P-mediated paw oedema” value (rat paw oedema; 10 and 100 nmol/paw) was “only a minimal inhibition” and the “tyr^8-bradykinin-induced paw oedema” value (rat paw oedema; 10 and 100 nmol/paw) was “significantly inhibited”. The “des-Arg^9-bradykinin-induced paw oedema” value (rat paw oedema) was “no significant effect”, the “bradykinin-induced oedema in animals treated with cyprohetadine or compound 48/80” value (rat paw oedema; intraperitoneal injection (FIG. 44)) was “dose-related inhibition was still observed” and the “duration of inhibition of bradykinin oedema” value (rat paw oedema; subplantar) was “at least 2 h”. For the same compound, the “onset of inhibition of bradykinin oedema” value (rat paw oedema; subplantar) was 30 min, the “bradykinin oedema in controlateral paw treated with saline” value (rat paw oedema; systemic effect of subplantar injection) was “significant anti-oedemagenic action” and the “increase of vascular permeability caused by bradykinin” value [5] was “antagonised in a dose-related manner”. For the same compound, the “activity against bradykinin vascular permeability, comparison” value ([5]; MV 8612 versus MV 8608) was “more active than MV 8608”, the “acetic acid, acetylcholine and kaolin-induced writhing response” value [6] was “dose-dependent inhibition” and the “acetic acid-induced writhes, i.c.v.” value ([6]; MV 8612 4.2 to 42 nmol/site, morphine 0.26 to 13 nmol/site) was “dose-related antinociception”. For the same compound, the “ID50 ACETIC ACID” value ([6]; i.p., mice, acetic acid-induced writhes) was 2.4 (1.9–2.6) μmol/kg, the “ID50 ACETYLCHOLINE” value ([6]; i.p., mice, acetylcholine-induced writhes) was 2.2 (2.0–2.3) μmol/kg and the “ID50 KAOLIN” value ([6]; i.p., mice, kaolin-induced writhes) was 0.4 (0.3–0.6) μmol/kg. The “potency versus morphine, i.c.v., acetic acid-induced writhes” value ([6]; less potent than morphine) was “about 12 fold”, the “potency against kaolin-induced pain versus the other writhing models” value ([6]; more potent) was “about 2 fold” and the “potency versus morphine and indomethacin, kaolin-induced writhes” value ([6]; more potent) was “about 2 fold”.
